Where a SMILES comes first, the peptide text is derived from it. [ ]: non-standard residue; d: D form. αMeF = C[C@](N)(Cc1ccccc1)C(=O)O; Aib = CC(C)(N)C(=O)O
Columns and labels:
Format in all cases: cell-based
Conditions in all cases: n = 2
[1] = biological target: T1, hGluc-R (Homo sapiens, UniProt P47871); assay: cAMP functional assay, cells expressing human glucagon receptor (primary assay)
T1 construct: expressed in transfected cells
Description: (§1) The biological activities/receptor potencies of the synthetic GLP-1 peptides described herein are suitably tested for biological activity, e.g., stimulation of one or more cellular receptor responses. Stable cell lines expressing human, mouse, rat, or dog GLP-1 receptor (GLP-1R), glucagon receptor (GCGR) or glucose-dependent insulinotropic peptide (gastric inhibitory polypeptide) receptor (GIPR) are generated in HEK293 cells or CHO cells by standard methods.
(§2) cAMP assays were performed using “assay buffer”: Assay Buffer: 0.1% BSA (Sigma #A3059) in HBSS (Sigma #H8264) with 25 mM HEPES, pH 7.4 and containing 0.5 mM IBMX (Sigma #17018).
(§3) Low protein binding 384-well plates (Greiner #781280) are used to perform eleven 1 in 5 serial dilutions of test samples which are made in assay buffer. All sample dilutions are made in duplicate.
(§4) A frozen cryo-vial of cells expressing the receptor of interest is thawed rapidly in a water-bath, transferred to pre-warmed assay buffer and spun at 240× g for 5 minutes. Cells are re-suspended in assay buffer at a batch-dependent optimized concentration (e.g. hGCGR cells at 2×10^5 cells/ml, hGLP-1R and hGIPR cells at 1×10^5 cells /ml).
(§5) From the dilution plate, a 5 μL replica is stamped onto a black shallow-well u-bottom 384-well plate (Corning #3676). To this, 5 μL cell suspension is added and the plates incubated at room temperature for 30 minutes.
(§6) cAMP levels are measured using a commercially available cAMP dynamic 2 HTRF kit (Cisbio, Cat #62AM4PEJ), following the two step protocol as per manufacturer's recommendations. In brief; anti-cAMP cryptate (donor fluorophore) and cAMP-d2 (acceptor fluorophore) are made up separately by diluting each 1/20 in conjugate & lysis buffer provided in the kit. 5 μL anti-cAMP cryptate is added to all wells of the assay plate, and 5 μL cAMP-d2 is added to all wells except non-specific binding (NSB) wells, to which conjugate and lysis buffer are added. Plates are incubated at room temperature for one hour and then read on an Envision (Perkin Elmer) using excitation wavelength of 320 nm and emission wavelengths of 620 nm & 665 nm. EC50 values of the synthetic peptides determined in cAMP assays are then determined.

[2] = biological target: T2, hGLP-1R (Homo sapiens, UniProt P43220); assay: cAMP functional assay, cells expressing human GLP-1 receptor (primary assay)
T2 construct: expressed in transfected cells
T2 sequence (P43220 24-463): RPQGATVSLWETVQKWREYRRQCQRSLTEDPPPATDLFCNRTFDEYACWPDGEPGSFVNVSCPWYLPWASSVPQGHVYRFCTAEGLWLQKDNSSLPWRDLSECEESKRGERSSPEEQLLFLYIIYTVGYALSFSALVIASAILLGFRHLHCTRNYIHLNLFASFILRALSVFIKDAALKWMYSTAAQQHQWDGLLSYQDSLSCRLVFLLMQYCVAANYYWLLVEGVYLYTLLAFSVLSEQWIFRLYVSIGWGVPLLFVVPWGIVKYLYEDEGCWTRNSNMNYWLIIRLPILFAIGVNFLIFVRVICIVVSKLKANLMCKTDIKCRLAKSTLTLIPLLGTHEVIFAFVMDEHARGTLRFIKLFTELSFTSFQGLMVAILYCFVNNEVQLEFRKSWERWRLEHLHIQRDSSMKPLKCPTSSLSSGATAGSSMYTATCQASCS
Description: as §1, §2, §3, §4, §5, §6

[3] = biological target: T3, hGIP-R (Homo sapiens, UniProt P48546); assay: cAMP functional assay, cells expressing human GIP receptor (primary assay)
T3 construct: expressed in transfected cells
T3 sequence (P48546 22-466): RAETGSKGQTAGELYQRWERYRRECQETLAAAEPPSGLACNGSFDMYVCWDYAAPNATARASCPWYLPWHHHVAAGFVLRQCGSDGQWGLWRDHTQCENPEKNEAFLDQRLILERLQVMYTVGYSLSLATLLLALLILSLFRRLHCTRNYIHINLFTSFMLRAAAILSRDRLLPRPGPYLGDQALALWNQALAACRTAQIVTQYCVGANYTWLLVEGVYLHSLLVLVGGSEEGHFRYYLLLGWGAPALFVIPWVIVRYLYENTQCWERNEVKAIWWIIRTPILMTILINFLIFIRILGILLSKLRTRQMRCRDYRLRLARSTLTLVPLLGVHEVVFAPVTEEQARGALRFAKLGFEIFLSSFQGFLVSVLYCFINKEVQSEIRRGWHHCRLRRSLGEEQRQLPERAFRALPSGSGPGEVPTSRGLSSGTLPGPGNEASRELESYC
Description: as §1, §2, §3, §4, §5, §6

T1 sequence (P47871 26-477): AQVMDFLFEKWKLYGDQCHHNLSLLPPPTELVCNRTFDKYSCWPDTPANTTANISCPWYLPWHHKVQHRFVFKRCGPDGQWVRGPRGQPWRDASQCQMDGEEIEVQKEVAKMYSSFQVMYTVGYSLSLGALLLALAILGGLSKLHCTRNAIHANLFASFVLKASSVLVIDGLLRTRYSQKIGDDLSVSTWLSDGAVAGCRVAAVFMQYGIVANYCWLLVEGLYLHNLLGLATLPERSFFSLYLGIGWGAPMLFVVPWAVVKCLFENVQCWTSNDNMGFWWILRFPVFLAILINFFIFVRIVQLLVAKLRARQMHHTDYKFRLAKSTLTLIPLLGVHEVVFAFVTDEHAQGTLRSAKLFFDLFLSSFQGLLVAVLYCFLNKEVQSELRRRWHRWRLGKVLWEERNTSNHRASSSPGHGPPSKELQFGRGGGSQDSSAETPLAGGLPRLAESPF

EC50 [1] | EC50 [2] | EC50 [3] | Compound
90.6 nM | 0.0254 nM | 90.6 nM | CCCCCCCCCCCCCCCC(=O)NCCCC[C@H](NC(=O)[C@H](CCCNC(=N)N)NC(=O)CNC(=O)[C@H](CCCCN)NC(=O)[C@@H](NC(=O)[C@H](CC(C)C)NC(=O)[C@H](Cc1c[nH]c2ccccc12)NC(=O)[C@H](C)NC(=O)[C@@H](NC(=O)[C@H](Cc1ccccc1)NC(=O)[C@H](CCC(=O)O)NC(=O)[C@H](CCCCN)NC(=O)[C@H](C)NC(=O)[C@H](C)NC(=O)[C@H](CCC(N)=O)NC(=O)CNC(=O)[C@H](CCC(=O)O)NC(=O)[C@H](CC(C)C)NC(=O)[C@H](Cc1ccc(O)cc1)NC(=O)[C@H](CO)NC(=O)[C@H](CO)NC(=O)[C@@H](NC(=O)[C@H](CC(=O)O)NC(=O)[C@H](CO)NC(=O)[C@@H](NC(=O)[C@H](Cc1ccccc1)NC(=O)[C@@H](NC(=O)CNC(=O)[C@H](CCC(=O)O)NC(=O)C(C)(C)NC(=O)[C@@H](N)Cc1c[nH]cn1)[C@@H](C)O)[C@@H](C)O)C(C)C)[C@@H](C)CC)C(C)C)C(N)=O [SEQ ID NO: 5, H-(Aib)^2-EGT^5 FTSDV^10 SSYLE^15 GQAAK^20 EFIAW^25 LVKGR^30-K(Ε-Palm), reference compound]
153 nM | 0.026 nM | 74.9 nM | CC[C@H](C)[C@H](NC(=O)[C@H](Cc1ccccc1)NC(=O)[C@H](CCC(=O)O)NC(=O)[C@H](CCCCN)NC(=O)[C@H](C)NC(=O)[C@H](C)NC(=O)[C@H](CCC(N)=O)NC(=O)CNC(=O)[C@H](CCC(=O)O)NC(=O)[C@H](CC(C)C)NC(=O)[C@H](Cc1ccc(O)cc1)NC(=O)[C@H](CO)NC(=O)[C@H](CO)NC(=O)[C@@H](NC(=O)[C@H](CC(=O)O)NC(=O)[C@H](CO)NC(=O)[C@@H](NC(=O)[C@](C)(Cc1ccccc1)NC(=O)[C@@H](NC(=O)CNC(=O)[C@H](CCC(=O)O)NC(=O)C(C)(C)NC(=O)[C@@H](N)Cc1c[nH]cn1)[C@@H](C)O)[C@@H](C)O)C(C)C)C(=O)N[C@@H](C)C(=O)N[C@@H](Cc1c[nH]c2ccccc12)C(=O)N[C@@H](CC(C)C)C(=O)N[C@H](C(=O)N[C@@H](CCCCN)C(=O)NCC(=O)N[C@@H](CCCNC(=N)N)C(N)=O)C(C)C [SEQ ID NO: 6, H-(Aib)^2-EGT^5-(α-MeF)^6-TSDV^10 SSYLE^15 GQAAK^20 EFIAW^25 LVKGR^30]
– | 0.191 nM | 102 nM | CC[C@H](C)[C@H](NC(=O)[C@](C)(Cc1ccccc1)NC(=O)[C@H](CCC(=O)O)NC(=O)[C@H](CCCCN)NC(=O)[C@H](C)NC(=O)[C@H](C)NC(=O)[C@H](CCC(N)=O)NC(=O)CNC(=O)[C@H](CCC(=O)O)NC(=O)[C@H](CC(C)C)NC(=O)[C@](C)(Cc1ccccc1)NC(=O)[C@H](CO)NC(=O)[C@H](CO)NC(=O)[C@@H](NC(=O)[C@H](CC(=O)O)NC(=O)[C@H](CO)NC(=O)[C@@H](NC(=O)[C@H](Cc1ccccc1)NC(=O)[C@H](CO)NC(=O)CNC(=O)[C@H](CCC(=O)O)NC(=O)C(C)(C)NC(=O)[C@@H](N)Cc1c[nH]cn1)[C@@H](C)O)C(C)C)C(=O)N[C@@H](C)C(=O)N[C@@](C)(Cc1ccccc1)C(=O)N[C@@H](CC(C)C)C(=O)N[C@H](C(=O)N[C@@H](CCCCN)C(=O)NCC(=O)N[C@@H](CCCNC(=N)N)C(N)=O)C(C)C [SEQ ID NO: 37, H-(Aib)^2-EG-(S)^5-FTSDV^10 SS-(α-MeF)^13-LE^15 GQAAK^20 E-(α-MeF)^22-IA-(α-MeF)^25 LVKGR^30] (H-H[Aib]EGSFTSDVSS[αMeF]LEGQAAKE[αMeF]IA[αMeF]LVKGR-NH2)
– | 0.0322 nM | 102 nM | CC[C@H](C)[C@H](NC(=O)[C@](C)(Cc1ccccc1)NC(=O)[C@H](CCC(=O)O)NC(=O)[C@H](CCCCN)NC(=O)[C@H](C)NC(=O)[C@H](C)NC(=O)[C@H](CCC(N)=O)NC(=O)CNC(=O)[C@H](CCC(=O)O)NC(=O)[C@H](CC(C)C)NC(=O)[C@](C)(Cc1ccccc1)NC(=O)[C@H](CO)NC(=O)[C@H](CO)NC(=O)[C@@H](NC(=O)[C@H](CC(=O)O)NC(=O)[C@H](CO)NC(=O)[C@@H](NC(=O)[C@](C)(Cc1ccccc1)NC(=O)[C@H](CO)NC(=O)CNC(=O)[C@H](CCC(=O)O)NC(=O)C(C)(C)NC(=O)[C@@H](N)Cc1c[nH]cn1)[C@@H](C)O)C(C)C)C(=O)N[C@@H](C)C(=O)N[C@@](C)(Cc1ccccc1)C(=O)N[C@@H](CC(C)C)C(=O)N[C@H](C(=O)N[C@@H](CCCCN)C(=O)NCC(=O)NCC(N)=O)C(C)C [SEQ ID NO: 39, H-(Aib)^2-EG-(S)^5-(α-MeF)^6-TSDV^10 SS-(α-MeF)^13-LE^15 GQAAK^20 E-(α-MeF)^22-IA-(α-MeF)^25 LVKG-(G)^30] (H-H[Aib]EGS[αMeF]TSDVSS[αMeF]LEGQAAKE[αMeF]IA[αMeF]LVKGG-NH2)
– | 0.254 nM | 102 nM | CC[C@H](C)[C@H](NC(=O)[C@](C)(Cc1ccccc1)NC(=O)[C@H](CCC(=O)O)NC(=O)[C@H](CCCCN)NC(=O)[C@H](C)NC(=O)[C@H](C)NC(=O)[C@H](CCC(N)=O)NC(=O)CNC(=O)[C@H](CCC(=O)O)NC(=O)[C@H](CC(C)C)NC(=O)[C@](C)(Cc1ccccc1)NC(=O)[C@H](CO)NC(=O)[C@H](CO)NC(=O)[C@@H](NC(=O)[C@H](CC(=O)O)NC(=O)[C@H](CO)NC(=O)[C@@H](NC(=O)[C@](C)(Cc1ccccc1)NC(=O)[C@H](CO)NC(=O)CNC(=O)[C@H](CCC(=O)O)NC(=O)C(C)(C)NC(=O)[C@@H](N)Cc1c[nH]cn1)[C@@H](C)O)C(C)C)C(=O)N[C@@H](C)C(=O)N[C@@](C)(Cc1ccccc1)C(=O)N[C@@H](CC(C)C)C(=O)NC(C)(C)C(=O)N[C@@H](CCCCN)C(=O)NCC(=O)N[C@@H](CCCNC(=N)N)C(N)=O [SEQ ID NO: 40, H-(Aib)^2-EG-(S)^5-(α-MeF)^6-TSDV^10 SS-(α-MeF)^13-LE^15 GQAAK^20 E-(α-MeF)^22-IA-(α-MeF)^25 L-(Aib)27-KGR^30] (H-H[Aib]EGS[αMeF]TSDVSS[αMeF]LEGQAAKE[αMeF]IA[αMeF]L[Aib]KGR-NH2)
– | 0.0234 nM | 102 nM | CC[C@H](C)[C@H](NC(=O)[C@](C)(Cc1ccccc1)NC(=O)[C@H](CCC(=O)O)NC(=O)[C@H](CCCCN)NC(=O)[C@H](C)NC(=O)[C@H](C)NC(=O)[C@H](CCC(N)=O)NC(=O)CNC(=O)[C@H](CCC(=O)O)NC(=O)[C@H](CC(C)C)NC(=O)[C@](C)(Cc1ccccc1)NC(=O)[C@H](CO)NC(=O)[C@H](CO)NC(=O)[C@@H](NC(=O)[C@H](CC(=O)O)NC(=O)[C@H](CO)NC(=O)[C@@H](NC(=O)[C@](C)(Cc1ccccc1)NC(=O)[C@H](CO)NC(=O)CNC(=O)[C@H](CCC(=O)O)NC(=O)C(C)(C)NC(=O)[C@@H](N)Cc1c[nH]cn1)[C@@H](C)O)C(C)C)C(=O)N[C@@H](C)C(=O)N[C@@](C)(Cc1ccccc1)C(=O)N[C@@H](CC(C)C)C(=O)N[C@H](C(=O)N[C@@H](CCCCN)C(=O)NC(C)(C)C(=O)N[C@@H](CCCNC(=N)N)C(N)=O)C(C)C [SEQ ID NO: 42, H-(Aib)^2-EG-(S)^5-(α-MeF)^6-TSDV^10 SS-(α-MeF)^13-LE^15 GQAAK^20 E-(α-MeF)^22-IA-(α-MeF)^25 LVK-(Aib)^29-R^30] (H-H[Aib]EGS[αMeF]TSDVSS[αMeF]LEGQAAKE[αMeF]IA[αMeF]LVK[Aib]R-NH2)
– | 0.0707 nM | 102 nM | CC[C@H](C)[C@H](NC(=O)[C@](C)(Cc1ccccc1)NC(=O)[C@H](CCC(=O)O)NC(=O)[C@H](CCCCN)NC(=O)[C@H](C)NC(=O)[C@H](C)NC(=O)[C@H](CCC(N)=O)NC(=O)CNC(=O)[C@H](CCC(=O)O)NC(=O)[C@H](CC(C)C)NC(=O)[C@](C)(Cc1ccccc1)NC(=O)[C@H](CO)NC(=O)[C@H](CO)NC(=O)[C@@H](NC(=O)[C@H](CC(=O)O)NC(=O)[C@H](CO)NC(=O)[C@@H](NC(=O)[C@](C)(Cc1ccccc1)NC(=O)[C@H](CO)NC(=O)CNC(=O)[C@H](CCC(=O)O)NC(=O)C(C)(C)NC(=O)[C@@H](N)Cc1c[nH]cn1)[C@@H](C)O)C(C)C)C(=O)N[C@@H](C)C(=O)N[C@@](C)(Cc1ccccc1)C(=O)N[C@@H](CC(C)C)C(=O)NC(C)(C)C(=O)N[C@@H](CCCCN)C(=O)NC(C)(C)C(=O)N[C@@H](CCCNC(=N)N)C(N)=O [SEQ ID NO: 43, H-(Aib)^2-EG-(S)^5-(α-MeF)^6-TSDV^10 SS-(α-MeF)^13-LE^15 GQAAK^20 E-(α-MeF)^22-IA-(α-MeF)^25 L-(Aib)^27-K-(Aib)^29-R^30] (H-H[Aib]EGS[αMeF]TSDVSS[αMeF]LEGQAAKE[αMeF]IA[αMeF]L[Aib]K[Aib]R-NH2)

Source: patent US20160318987A1 (MEDIMMUNE LIMITED, priority 2013, published 2016)
